Data as given in patent US20240009174A1, “METHODS FOR DISRUPTING MITOCHONDRIAL UNFOLDED PROTEIN RESPONSE” (Health Research, Inc., priority 2020, published 2024).

Experiments:
[1] = test system: PC-3 cells; experiment: Protein expression of nuclear encoded OXPHOS subunits; assay type: cell-based
[2] = test system: PCa cells (LNCaP and PC-3); experiment: Cell death / apoptosis in PCa cells (Annexin V FITC/PI flow cytometry); assay type: cell-based
Method: FIG. 6. Pharmacological inhibition of HSP60-ClpP interaction induces UPR^mt and PCa cell death. (A) Docking of DCEM1 into apical domain of HSP60. (B) LNCaP and PC-3 cells were treated with DCEM1 for 24 hours and HSP60-ClpP interaction was analyzed by co-immunoprecipitation assay. (C) LNCaP and PC-3 cells were treated with DCEM1 for 24 hours and mitoROS levels were analyzed by flow cytometry using mitoSOX dye. (D) LNCaP and PC-3 cells were treated with DCEM1 for 24 hours and poly-Ub protein levels were analyzed by western blotting. (E) LNCaP and PC-3 cells were treated with DCEM1 for 24 and 48 hours and apoptotic cell populations were analyzed by flow cytometry using Annexin V FITC/PI method as explained in materials and methods. In (E) top panel, the bars in each series from left to right are control, 5, 10, and 20, and in (E) bottom panel, the bars in each series from left to right are DMSO, 5, 10, and 20. (F) LNCaP and PC-3 cells were treated with DCEM1 for 24 and 48 hours and lysates were prepared and analyzed for DEVDase activity using specific peptide substrate. […] (G) LNCaP and PC-3 cells were pre-treated with SKQ1 followed by DCEM1 treatment and analyzed for cell viability by MTT assay. (H) LNCaP and PC-3 cells were treated with either DCEM1 or H2O2 (200 μM) for 24 hours and total DNA were isolated and analyzed for mtDNA damage as described in materials and methods. […]

[3] = test system: TKO PCa cells; experiment: mitoROS, mitoMass and apoptosis in TKO PCa cells; assay type: cell-based, mouse; details: data not shown
Method: Identification of novel inhibitor of HSP60-ClpP interaction that disrupts UPR^mt function and induces PCa cell death. Having shown that two arms of UPR^mt, HSP60 chaperonin and ClpP protease interact and play critical role in PCa cell survival, an in silico analysis was performed and a small molecule library (developed by Enamine Ltd) was screened to identify drugs targeting the apical domain of HSP60 critical for its interaction with ClpP. 9 compounds (A-I) were identified and screened for their cell death inducing potential in PCa cells (data not shown). […] Colony forming ability of PCa cells was inhibited by DCEM1 treatment (data not shown).

[4] = test system: PC-3 (AR negative) xenografts; experiment: PC-3 xenograft in SCID mice; assay type: in vivo; details: 60 mg/kg bw
Method: (§1) FIG. 8. Pharmacological inhibition of HSP60-ClpP inhibit oncogenic signaling and PCa tumor growth in vivo. (A) LNCaP, PC-3 and 22RV1 cells were treated with DCEM1 and analyzed for c-Myc and EZH2 protein expression after 24 hours of treatment. (B) LNCaP, 22RV1 and VCaP cells were treated with DCEM1 and analyzed for AR and PSA protein expression after 24 hours of treatment. (C-D) 22RV1 cells (1×10^6 cells) were mixed with matrigel (50:50 v/v) and injected into each flank of SCID mice and treated with DCEM1 (60 mg/kg bw) through IP route twice weekly and tumors were harvested, photographed (C) and weighed (D) at 30 days. (E) DEVDase activity were analyzed in 22RV1 xenograft tumor tissue following DCEM1 treatment and represented as fold change compared to control. (F) 22RV1 xenograft tissue were sectioned and expression of ki67, c-Myc and EZH2 proteins were analyzed by Immunohistochemistry as described in material and methods. (G-H) PC-3 cells (1×10^6 cells) were mixed with matrigel (50:50 v/v) and injected into each flank of SCID mice and treated with DCEM1 (60 mg/kg bw) through IP route twice weekly and tumors were harvested, photographed (G) and weighed (H) at 35 days. (I) DEVDase activity were analyzed in PC-3 xenograft tumor tissue following DCEM1 treatment and represented as fold change compared to control. (J) PC-3 xenograft tumor tissue were fixed and sections were used for in situ PLA to analyze HSP60-ClpP interaction in these tissue samples. […] All animals were sacrificed at 16 weeks of age and prostate tissue and tumors were harvested, whole cell lysate were prepared and analyzed for HSP60 and ClpP expression (N); c-Myc and EZH2 expression (0) and SYP and CK 8/18 expression (P) by immunoblotting. […]
Ablation of HSP60-ClpP interaction by DCEM1 downregulates c-Myc, EZH2 and AR as well as inhibits tumor growth in vivo. […] The effect of DCEM1 on 22RV1 (AR positive) and PC-3 (AR negative) xenografts growth in SCID mice was analyzed. […]

[5] = test system: c-Myc, EZH2, AR, PSA; experiment: c-Myc, EZH2, AR and PSA protein expression in PCa cells; assay type: cell-based; details: LNCaP, 24 hours
Method: as §1, with “(G-H) PC-3 cells (1×10^6 cells) were mixed with matrigel (50:50 v/v) and injected into each flank of SCID mice and treated with DCEM1 (60 mg/kg bw) through IP route twice weekly and tumors were harvested, photographed (G) and weighed (H) at 35 days.” left out, “control.” for “control. (J) PC-3 xenograft tumor tissue were fixed and sections were used for in situ PLA to analyze HSP60-ClpP interaction in these tissue samples.”

Compound: CCOc1cc(CNCc2nc3ccccc3[nH]2)ccc1OCc1cccs1 [DCEM1]
- nuclear encoded subunits of OXPHOS Complexes [1]: downregulation of nuclear encoded subunits of OXPHOS Complexes
- apoptotic cell death ([2]; LNCaP and PC-3 cells, 24 and 48 hours, Annexin V FITC/PI): apoptotic cell death was observed
- cell death in PCa cells ([2]; PCa cells): robust cell death
- mitoROS and mitoMass in TKO PCa cells ([3]; cells established from TKO mouse prostate tumor tissue): induced mitoROS and mitoMass
- apoptotic cell death in TKO PCa cells [3]: induced robust apoptotic cell death
- HSP60-ClpP interaction by in situ PLA in PC-3 xenograft tumors [4]: inhibited HSP60-ClpP interaction
- caspase-3 (DEVDase) activity in PC-3 xenograft tumors ([4]; IP, twice weekly): induced
- tumor volume and weight, PC-3 xenografts ([4]; IP, twice weekly, 35 days): effectively inhibited
- PSA levels ([5]; 22RV1 and VCaP cells): Decrease in PSA levels
- c-Myc, EZH2, and AR signaling in PCa cells ([5]; PC-3, 22RV1, VCaP cells): downregulates c-Myc, EZH2, and AR signaling
